Measured values: the supplement of paper PMC10307832

Experiments:
Assay in all cases: relative viability (nuclei count vs DMSO), 5 days (fraction); higher = more cells survive
201T = tested on: 201T
In short: (§1)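 One day after seeding in 1536-well plates, lung cancer cell lines were dosed by pin tool. Dosing was either single-drug or a fixed anchor-drug dose plus five library-drug doses (not always all listed) in √10 steps. After 5 days, nuclei were stained in one fix-and-stain step and counted on 4× images, and relative viability is the nuclei count of treated wells over that of vehicle wells, given as the median of duplicate plates.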

BEN = tested on: BEN
In short: as §1

EMC-BAC-2 = tested on: EMC-BAC-2
In short: as §1

HARA = tested on: HARA
In short: as §1

LCLC-103H = tested on: LCLC-103H
In short: as §1

LOU-NH91 = tested on: LOU-NH91
In short: as §1

NCI-H1395 = tested on: NCI-H1395
In short: as §1

NCI-H1993 = tested on: NCI-H1993
In short: as §1

NCI-H2023 = tested on: NCI-H2023
In short: as §1

NCI-H2087 = tested on: NCI-H2087
In short: as §1

NCI-H2126 = tested on: NCI-H2126
In short: as §1

NCI-H2347 = tested on: NCI-H2347
In short: as §1

NCI-H23 = tested on: NCI-H23
In short: as §1

NCI-H3122 = tested on: NCI-H3122
In short: as §1

NCI-H441 = tested on: NCI-H441
In short: as §1

NCI-H522 = tested on: NCI-H522
In short: as §1

NCI-H596 = tested on: NCI-H596
In short: as §1

NCI-H647 = tested on: NCI-H647
In short: as §1

NCI-H650 = tested on: NCI-H650
In short: as §1

NCI-H727 = tested on: NCI-H727
In short: as §1

NCI-H838 = tested on: NCI-H838
In short: as §1

## CCN(CC)CCCCNc1ncc2cc(-c3cc(OC)cc(OC)c3)c(NC(=O)NC(C)(C)C)nc2n1 + Cc1nc(Nc2ncc(C(=O)Nc3c(C)cccc3Cl)s2)cc(N2CCN(CCO)CC2)n1 [Dasatinib] (partner 0.075 µM)
201T; first compound 0.01 µM
  relative viability: 0.553
201T; first compound 0.03162 µM
  relative viability: 0.568
201T; first compound 0.1 µM
  relative viability: 0.677
201T; first compound 0.3162 µM
  relative viability: 0.568
201T; first compound 1 µM
  relative viability: 0.635
BEN; first compound 0.01 µM
  relative viability: 0.298
BEN; first compound 0.03162 µM
  relative viability: 0.282
BEN; first compound 0.1 µM
  relative viability: 0.359
BEN; first compound 0.3162 µM
  relative viability: 0.353
BEN; first compound 1 µM
  relative viability: 0.26
EMC-BAC-2; first compound 0.01 µM
  relative viability: 0.189
EMC-BAC-2; first compound 0.03162 µM
  relative viability: 0.359
EMC-BAC-2; first compound 0.1 µM
  relative viability: 0.304
EMC-BAC-2; first compound 0.3162 µM
  relative viability: 0.348
EMC-BAC-2; first compound 1 µM
  relative viability: 0.3
HARA; first compound 0.01 µM
  relative viability: 0.284
HARA; first compound 0.03162 µM
  relative viability: 0.246
HARA; first compound 0.1 µM
  relative viability: 0.312
HARA; first compound 0.3162 µM
  relative viability: 0.142
HARA; first compound 1 µM
  relative viability: 0.237
LCLC-103H; first compound 0.01 µM
  relative viability: 0.424
LCLC-103H; first compound 0.03162 µM
  relative viability: 0.623
LCLC-103H; first compound 0.1 µM
  relative viability: 0.596
LCLC-103H; first compound 0.3162 µM
  relative viability: 0.554
LCLC-103H; first compound 1 µM
  relative viability: 0.331
LOU-NH91; first compound 0.01 µM
  relative viability: 0.51
LOU-NH91; first compound 0.03162 µM
  relative viability: 0.521
LOU-NH91; first compound 0.1 µM
  relative viability: 0.629
LOU-NH91; first compound 0.3162 µM
  relative viability: 0.718
LOU-NH91; first compound 1 µM
  relative viability: 0.57
NCI-H1395; first compound 0.01 µM
  relative viability: 0.421
NCI-H1395; first compound 0.03162 µM
  relative viability: 0.422
NCI-H1395; first compound 0.1 µM
  relative viability: 0.753
NCI-H1395; first compound 0.3162 µM
  relative viability: 0.386
NCI-H1395; first compound 1 µM
  relative viability: 0.411
NCI-H1993; first compound 0.01 µM
  relative viability: 0.31
NCI-H1993; first compound 0.03162 µM
  relative viability: 0.604
NCI-H1993; first compound 0.1 µM
  relative viability: 0.611
NCI-H1993; first compound 0.3162 µM
  relative viability: 0.604
NCI-H1993; first compound 1 µM
  relative viability: 0.536
NCI-H2023; first compound 0.01 µM
  relative viability: 0.548
NCI-H2023; first compound 0.03162 µM
  relative viability: 0.675
NCI-H2023; first compound 0.1 µM
  relative viability: 0.657
NCI-H2023; first compound 0.3162 µM
  relative viability: 0.571
NCI-H2023; first compound 1 µM
  relative viability: 0.493
NCI-H2087; first compound 0.01 µM
  relative viability: 0.993
NCI-H2087; first compound 0.03162 µM
  relative viability: 0.797
NCI-H2087; first compound 0.1 µM
  relative viability: 0.964
NCI-H2087; first compound 0.3162 µM
  relative viability: 0.961
NCI-H2087; first compound 1 µM
  relative viability: 0.888
NCI-H2126; first compound 0.01 µM
  relative viability: 0.586
NCI-H2126; first compound 0.03162 µM
  relative viability: 0.603
NCI-H2126; first compound 0.1 µM
  relative viability: 0.648
NCI-H2126; first compound 0.3162 µM
  relative viability: 0.77
NCI-H2126; first compound 1 µM
  relative viability: 0.53
NCI-H2347; first compound 0.01 µM
  relative viability: 0.149
NCI-H2347; first compound 0.03162 µM
  relative viability: 0.315
NCI-H2347; first compound 0.1 µM
  relative viability: 0.39
NCI-H2347; first compound 0.3162 µM
  relative viability: 0.288
NCI-H2347; first compound 1 µM
  relative viability: 0.31
NCI-H23; first compound 0.01 µM
  relative viability: 0.795
NCI-H23; first compound 0.03162 µM
  relative viability: 1
NCI-H23; first compound 0.1 µM
  relative viability: 0.904
NCI-H23; first compound 0.3162 µM
  relative viability: 0.925
NCI-H23; first compound 1 µM
  relative viability: 0.878
NCI-H3122; first compound 0.01 µM
  relative viability: 0.876
NCI-H3122; first compound 0.03162 µM
  relative viability: 0.914
NCI-H3122; first compound 0.1 µM
  relative viability: 0.939
NCI-H3122; first compound 0.3162 µM
  relative viability: 0.954
NCI-H3122; first compound 1 µM
  relative viability: 0.842
NCI-H441; first compound 0.01 µM
  relative viability: 0.68
NCI-H441; first compound 0.03162 µM
  relative viability: 0.572
NCI-H441; first compound 0.1 µM
  relative viability: 0.604
NCI-H441; first compound 0.3162 µM
  relative viability: 0.775
NCI-H441; first compound 1 µM
  relative viability: 0.554
NCI-H522; first compound 0.01 µM
  relative viability: 0.862
NCI-H522; first compound 0.03162 µM
  relative viability: 1.01
NCI-H522; first compound 0.1 µM
  relative viability: 1
NCI-H522; first compound 0.3162 µM
  relative viability: 0.879
NCI-H522; first compound 1 µM
  relative viability: 0.79
NCI-H596; first compound 0.01 µM
  relative viability: 0.633
NCI-H596; first compound 0.03162 µM
  relative viability: 0.593
NCI-H596; first compound 0.1 µM
  relative viability: 0.585
NCI-H596; first compound 0.3162 µM
  relative viability: 0.393
NCI-H596; first compound 1 µM
  relative viability: 0.44
NCI-H647; first compound 0.01 µM
  relative viability: 0.189
NCI-H647; first compound 0.03162 µM
  relative viability: 0.174
NCI-H647; first compound 0.1 µM
  relative viability: 0.209
NCI-H647; first compound 0.3162 µM
  relative viability: 0.218
NCI-H647; first compound 1 µM
  relative viability: 0.0989
NCI-H650; first compound 0.01 µM
  relative viability: 0.368
NCI-H650; first compound 0.03162 µM
  relative viability: 0.454
NCI-H650; first compound 0.1 µM
  relative viability: 0.468
NCI-H650; first compound 0.3162 µM
  relative viability: 0.48
NCI-H650; first compound 1 µM
  relative viability: 0.427
NCI-H727; first compound 0.01 µM
  relative viability: 0.177
NCI-H727; first compound 0.03162 µM
  relative viability: 0.424
NCI-H727; first compound 0.1 µM
  relative viability: 0.385
NCI-H727; first compound 0.3162 µM
  relative viability: 0.507
NCI-H727; first compound 1 µM
  relative viability: 0.351
NCI-H838; first compound 0.01 µM
  relative viability: 0.259
NCI-H838; first compound 0.03162 µM
  relative viability: 0.305
NCI-H838; first compound 0.1 µM
  relative viability: 0.307
NCI-H838; first compound 0.3162 µM
  relative viability: 0.305
NCI-H838; first compound 1 µM
  relative viability: 0.246
